The values that follow come from patent US10004732B2 (Novartis AG, priority 2014, dated 2018).

The nature of series [1]: Microsomal clearance assay (M). To be noted: intrinsic clearance in rat liver microsomes. A general note: Microsomes from liver hold many membrane-bound enzymes, among them those of drug oxidation.
Experimental: The experiments were performed in 96-well glass plates at 37° C. on an automated Tecan EVO platform. Test compounds at a concentration of 10 mM in pure DMSO were diluted 1:1000 in water to 10 μM. […] Reactions were initiated by the addition of 150 μL of a cofactor solution containing 2 mM NADPH.
Series [2] deals with IL-8-induced neutrophil shape change in human whole blood. Put plainly: Whole blood neutrophil shape change assay (L). It is filed as cell-based. The conditions noted are these: Homo sapiens, Neutrophil, IL-8, human whole blood, read-out: Assay L WBSC IC50.
Series [3] concerns the target PI 3-kinase delta (Homo sapiens, UniProt O00329). Put plainly: TR-FRET Adapta assay, assay F. The conditions noted are these: read-out: Assay F PI3Kδ IC50.
Series [4] addresses Vps34 (Homo sapiens, UniProt Q8NEB9). In words: Kinase Glo Luminescent Kinase Assay (Kglo), assay C. It is filed as biochemical. The conditions noted are these: read-out: Assay C VPS34 IC50. A general note: Kinase-Glo measures the ATP left after a reaction by luminescence.
For series [5], the target named is mTOR (Homo sapiens, UniProt P42345). Put plainly: Lanthascreen kinase binding assay, assay G. To be noted: read-out: Assay G mTOR IC50. Background: TR-FRET usually uses a lanthanide donor and a delayed reading to cut background.
Experimental: Lanthascreen™ Kinase Binding Assay for mTOR (G)
Binding of an inhibitor to the kinase competes for binding with the tracer, resulting in a loss of FRET.
50 nL of compound dilutions were dispensed onto white 384-well small volume polystyrene plate.
For series [6], the target named is PI 4-kinase beta (Homo sapiens, UniProt Q9UBF8). In words: Kinase Glo Luminescent Kinase Assay (Kglo), assay D. It is filed as biochemical. The conditions noted are these: read-out: Assay D PI4Kβ IC50.
For series [7], the target named is T1, PI 3-kinase gamma (Homo sapiens, UniProt P48736). Put plainly: Cellular U937 AKT assay K1 (MSD). It is filed as cell-based. The conditions noted are these: U937 cells, K1 format; read-out: Assay K1 PI3Kγ IC50.
Series [8] deals with PI 3-kinase alpha (Homo sapiens, UniProt P42336). Put plainly: Kinase Glo Luminescent Kinase Assay (Kglo), assay A. It is filed as biochemical. To be noted: read-out: Assay A PI3Kα IC50.
Series [9] addresses T1, PI 3-kinase gamma. Put plainly: TR-FRET Adapta assay, assay E. To be noted: read-out: Assay E PI3Kγ IC50. It is filed as biochemical.
The target of series [10] is PI 3-kinase beta (Homo sapiens, UniProt P42338). Put plainly: Kinase Glo Luminescent Kinase Assay (Kglo), assay B. It is filed as biochemical. The conditions noted are these: read-out: Assay B PI3Kβ IC50.
Experimental: Kinase Glo Luminescent Kinase Assay (Kglo) for Pb 3-Kinase Alpha (A), Pb 3-Kinase Beta (B), Vps34 (C), Pb 4-Kinase Beta (D)
The Kinase Glo Luminescent Kinase Assay (Promega, Madison/Wis., USA) is a homogeneous HTS method of measuring kinase activity by quantifying the amount of ATP remaining in solution following a kinase reaction.
L-α-phosphatidylinositol (PI), provided as 10 mg/ml solution in methanol, was transferred into a glass tube and dried under a nitrogen beam. It was then resuspended in 3% OctylGlucoside (1-0-n-octyl-beta-D-glucopyranoside) by vortexing and stored at 4° C. 5 μL of a mix of PI/OctylGlucoside with the PI 3-kinase alpha and PI 3-kinase beta subtypes, or Vps34 or PI 4-kinase beta were added. Kinase reactions were started by the addition of 5 μl of an ATP-mix containing in a final volume 10 μL 10 mM TRIS-HCl pH 7.5, 3 mM MgCl2, 50 mM NaCl, 0.05% CHAPS, 1 mM DTT and 1 μM ATP at room temperature.
All fits were performed with the program XLfit4 (ID Business Solutions, Guildford, UK).

Structures are written as SMILES.

PI 3-kinase beta, sequence (P42338 whole entry): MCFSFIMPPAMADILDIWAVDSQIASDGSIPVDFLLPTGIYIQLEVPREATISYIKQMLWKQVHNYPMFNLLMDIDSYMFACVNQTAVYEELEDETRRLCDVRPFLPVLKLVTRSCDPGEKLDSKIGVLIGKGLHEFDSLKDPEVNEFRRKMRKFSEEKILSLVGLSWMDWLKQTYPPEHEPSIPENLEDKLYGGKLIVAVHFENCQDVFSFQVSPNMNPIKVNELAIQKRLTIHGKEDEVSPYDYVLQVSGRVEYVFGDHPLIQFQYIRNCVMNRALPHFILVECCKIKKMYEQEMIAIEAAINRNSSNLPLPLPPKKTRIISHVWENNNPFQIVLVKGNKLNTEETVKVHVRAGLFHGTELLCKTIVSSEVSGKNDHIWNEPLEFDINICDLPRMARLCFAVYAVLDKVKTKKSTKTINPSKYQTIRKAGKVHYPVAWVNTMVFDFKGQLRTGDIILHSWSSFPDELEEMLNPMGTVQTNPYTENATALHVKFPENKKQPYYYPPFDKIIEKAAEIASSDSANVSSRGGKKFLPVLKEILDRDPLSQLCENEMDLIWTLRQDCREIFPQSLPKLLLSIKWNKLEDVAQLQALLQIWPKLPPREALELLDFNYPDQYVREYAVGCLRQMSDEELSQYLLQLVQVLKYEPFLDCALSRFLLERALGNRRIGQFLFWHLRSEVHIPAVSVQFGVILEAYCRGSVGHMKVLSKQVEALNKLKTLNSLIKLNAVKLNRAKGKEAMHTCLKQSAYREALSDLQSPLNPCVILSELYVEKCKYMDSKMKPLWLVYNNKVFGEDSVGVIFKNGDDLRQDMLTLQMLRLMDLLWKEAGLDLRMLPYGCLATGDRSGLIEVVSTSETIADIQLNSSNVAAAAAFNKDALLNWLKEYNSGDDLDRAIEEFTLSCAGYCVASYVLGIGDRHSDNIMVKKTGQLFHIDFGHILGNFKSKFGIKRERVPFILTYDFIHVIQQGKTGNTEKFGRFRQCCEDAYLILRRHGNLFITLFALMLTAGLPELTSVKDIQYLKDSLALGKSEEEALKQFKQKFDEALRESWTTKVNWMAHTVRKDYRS
PI 3-kinase beta, sequence (P27986 461-568 partner): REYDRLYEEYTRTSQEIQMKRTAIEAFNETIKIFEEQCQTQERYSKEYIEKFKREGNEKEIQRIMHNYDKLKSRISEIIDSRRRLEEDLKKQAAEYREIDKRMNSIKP
Vps34, sequence (Q8NEB9 whole entry, species assumed): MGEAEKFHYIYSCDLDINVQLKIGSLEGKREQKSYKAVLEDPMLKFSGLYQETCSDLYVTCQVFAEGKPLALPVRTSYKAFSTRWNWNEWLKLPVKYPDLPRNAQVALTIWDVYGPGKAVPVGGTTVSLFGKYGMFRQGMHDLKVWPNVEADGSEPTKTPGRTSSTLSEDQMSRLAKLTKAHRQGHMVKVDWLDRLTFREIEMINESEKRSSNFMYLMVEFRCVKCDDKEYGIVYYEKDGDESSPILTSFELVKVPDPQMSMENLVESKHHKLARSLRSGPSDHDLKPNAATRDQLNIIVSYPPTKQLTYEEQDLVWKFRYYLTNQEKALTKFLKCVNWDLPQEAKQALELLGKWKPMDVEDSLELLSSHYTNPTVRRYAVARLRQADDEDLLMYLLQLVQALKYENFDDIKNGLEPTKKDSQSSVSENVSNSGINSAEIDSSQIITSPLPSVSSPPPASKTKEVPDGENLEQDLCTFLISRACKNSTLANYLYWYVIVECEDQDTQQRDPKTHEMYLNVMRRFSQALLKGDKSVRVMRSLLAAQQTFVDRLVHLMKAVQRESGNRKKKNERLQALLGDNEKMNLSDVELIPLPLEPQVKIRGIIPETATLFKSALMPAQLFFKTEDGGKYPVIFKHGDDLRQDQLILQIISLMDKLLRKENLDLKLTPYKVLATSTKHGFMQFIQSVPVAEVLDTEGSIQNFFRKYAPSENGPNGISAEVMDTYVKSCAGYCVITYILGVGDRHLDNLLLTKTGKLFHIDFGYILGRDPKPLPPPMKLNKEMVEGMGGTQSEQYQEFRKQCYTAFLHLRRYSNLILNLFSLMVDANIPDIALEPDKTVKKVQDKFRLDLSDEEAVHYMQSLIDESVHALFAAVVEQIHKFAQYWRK
PI 3-kinase delta, sequence (O00329 whole entry): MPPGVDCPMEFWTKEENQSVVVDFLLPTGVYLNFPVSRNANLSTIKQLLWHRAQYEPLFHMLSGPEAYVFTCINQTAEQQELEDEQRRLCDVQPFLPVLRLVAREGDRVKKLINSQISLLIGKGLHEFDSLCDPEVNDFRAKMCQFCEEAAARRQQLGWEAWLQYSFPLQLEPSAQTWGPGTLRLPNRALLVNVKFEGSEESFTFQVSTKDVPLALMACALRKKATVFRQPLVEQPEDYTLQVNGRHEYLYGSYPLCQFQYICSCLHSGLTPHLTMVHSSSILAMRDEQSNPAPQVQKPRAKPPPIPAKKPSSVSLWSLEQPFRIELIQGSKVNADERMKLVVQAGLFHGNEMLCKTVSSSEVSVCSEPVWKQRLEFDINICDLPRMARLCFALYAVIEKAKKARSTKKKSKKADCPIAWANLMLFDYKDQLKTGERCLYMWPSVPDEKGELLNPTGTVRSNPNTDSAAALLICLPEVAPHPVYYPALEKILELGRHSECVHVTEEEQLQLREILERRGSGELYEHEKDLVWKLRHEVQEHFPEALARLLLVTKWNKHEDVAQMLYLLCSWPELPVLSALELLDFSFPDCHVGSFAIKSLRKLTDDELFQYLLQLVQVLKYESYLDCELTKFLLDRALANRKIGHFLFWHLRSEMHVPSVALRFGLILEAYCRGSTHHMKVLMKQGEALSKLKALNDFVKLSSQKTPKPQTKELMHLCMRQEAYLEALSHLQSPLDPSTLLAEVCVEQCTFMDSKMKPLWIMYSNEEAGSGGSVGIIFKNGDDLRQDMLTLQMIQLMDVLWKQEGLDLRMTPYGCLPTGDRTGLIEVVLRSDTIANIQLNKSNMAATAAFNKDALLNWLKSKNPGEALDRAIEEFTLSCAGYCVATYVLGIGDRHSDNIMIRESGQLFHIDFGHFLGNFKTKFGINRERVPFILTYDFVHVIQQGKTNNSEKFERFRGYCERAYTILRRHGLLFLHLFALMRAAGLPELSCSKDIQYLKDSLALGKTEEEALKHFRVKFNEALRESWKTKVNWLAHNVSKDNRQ
PI 3-kinase delta, sequence (P27986 461-568 partner): as the sequence (P27986 461-568 partner) above
PI 4-kinase beta, sequence (Q9UBF8 whole entry): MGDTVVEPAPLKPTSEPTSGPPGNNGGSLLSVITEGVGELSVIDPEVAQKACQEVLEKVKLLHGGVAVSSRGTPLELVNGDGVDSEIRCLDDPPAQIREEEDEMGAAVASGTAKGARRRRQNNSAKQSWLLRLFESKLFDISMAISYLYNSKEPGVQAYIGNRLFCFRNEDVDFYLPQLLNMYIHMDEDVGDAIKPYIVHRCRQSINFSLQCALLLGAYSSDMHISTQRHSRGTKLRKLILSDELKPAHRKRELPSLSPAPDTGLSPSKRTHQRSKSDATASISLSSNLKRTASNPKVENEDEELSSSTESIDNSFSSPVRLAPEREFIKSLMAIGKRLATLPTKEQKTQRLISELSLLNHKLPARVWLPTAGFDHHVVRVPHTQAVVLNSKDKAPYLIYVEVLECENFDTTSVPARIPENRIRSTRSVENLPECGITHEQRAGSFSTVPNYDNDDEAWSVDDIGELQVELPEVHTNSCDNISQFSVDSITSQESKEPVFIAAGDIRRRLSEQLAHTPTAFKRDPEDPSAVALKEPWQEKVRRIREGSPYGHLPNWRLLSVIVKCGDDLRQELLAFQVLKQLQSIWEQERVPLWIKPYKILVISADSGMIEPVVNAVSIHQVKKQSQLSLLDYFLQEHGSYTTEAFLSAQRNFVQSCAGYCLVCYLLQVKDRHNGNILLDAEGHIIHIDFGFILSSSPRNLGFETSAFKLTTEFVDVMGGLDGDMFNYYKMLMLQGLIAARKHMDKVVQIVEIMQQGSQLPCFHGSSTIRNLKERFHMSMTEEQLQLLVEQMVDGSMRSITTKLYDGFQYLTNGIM
PI 3-kinase alpha, sequence (P42336 whole entry): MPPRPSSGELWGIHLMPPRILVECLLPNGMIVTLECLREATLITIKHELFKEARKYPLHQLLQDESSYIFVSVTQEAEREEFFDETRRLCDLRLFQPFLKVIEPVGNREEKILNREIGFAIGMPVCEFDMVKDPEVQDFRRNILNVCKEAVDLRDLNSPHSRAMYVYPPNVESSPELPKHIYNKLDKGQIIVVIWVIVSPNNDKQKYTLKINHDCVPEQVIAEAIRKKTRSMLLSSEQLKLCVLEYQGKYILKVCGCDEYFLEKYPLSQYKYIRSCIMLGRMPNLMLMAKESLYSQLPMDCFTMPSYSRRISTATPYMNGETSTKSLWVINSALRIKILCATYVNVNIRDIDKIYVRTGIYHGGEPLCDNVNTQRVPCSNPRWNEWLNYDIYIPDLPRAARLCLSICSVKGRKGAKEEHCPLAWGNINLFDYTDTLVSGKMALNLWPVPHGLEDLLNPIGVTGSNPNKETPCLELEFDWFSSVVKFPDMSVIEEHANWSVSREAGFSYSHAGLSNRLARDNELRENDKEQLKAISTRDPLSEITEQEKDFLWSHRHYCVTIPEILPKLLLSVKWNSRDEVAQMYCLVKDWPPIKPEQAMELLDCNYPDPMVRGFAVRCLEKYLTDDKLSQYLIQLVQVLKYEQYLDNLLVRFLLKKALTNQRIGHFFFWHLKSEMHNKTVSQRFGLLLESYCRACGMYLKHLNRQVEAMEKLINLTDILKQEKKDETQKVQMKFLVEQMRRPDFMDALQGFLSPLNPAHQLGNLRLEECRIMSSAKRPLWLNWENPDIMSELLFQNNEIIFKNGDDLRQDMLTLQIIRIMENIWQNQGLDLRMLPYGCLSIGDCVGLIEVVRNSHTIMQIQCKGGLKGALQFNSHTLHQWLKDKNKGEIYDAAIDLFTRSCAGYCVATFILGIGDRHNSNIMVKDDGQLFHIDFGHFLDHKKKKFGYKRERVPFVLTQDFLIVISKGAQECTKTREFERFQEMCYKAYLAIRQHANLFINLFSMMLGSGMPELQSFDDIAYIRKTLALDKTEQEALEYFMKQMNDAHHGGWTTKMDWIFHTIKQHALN

One may read the IC50 as the midpoint of a concentration-inhibition curve. For `Cc1ccc(S(=O)(=O)NCC2(O)CC2)cc1-c1cnc(N)c(-n2cncn2)n1` [Example 28, 3-(5-Amino-6-[1,2,4]triazol-1-yl-pyrazin-2-yl)-N-(1-hydroxy-cyclopropylmethyl)-4-methyl-benzenesulfonamide], the “Assay M RLM CI(int)” value in series [1] was 34 µL/min/mg. The IC50 in [2] is 759 nM; in series [3], 560 nM; in series [4], > 9.1 µM; in series [5] it was > 9.1 µM; in series [6], 8.9 µM; in [7] it was 280 nM. The 50% inhibitory concentration (IC50) in series [8] is 680 nM; in series [9], 26 nM; in series [10], 4300 nM.

Turning to `Cc1ccc(S(=O)(=O)NCC(F)F)cc1-c1cnc(N)c(-n2cncn2)n1` [Example 34, 3-(5-Amino-6-[1,2,4]triazol-1-yl-pyrazin-2-yl)-N-(2,2-difluoro-ethyl)-4-methyl-benzenesulfonamide], in series [1], the “Assay M RLM CI(int)” value is 52 µL/min/mg. The IC50 in series [2] was 805 nM; in series [3], 2900 nM; in series [4] it was > 10 µM; in series [5], 2.5 µM; in series [6], 3.8 µM; in series [7] it was 137 nM. Further, the half-maximal inhibitory concentration (IC50) in series [8] was 700 nM; in [9], 74 nM; in series [10] it was 2500 nM.

With `Cc1ccc(S(=O)(=O)NCC(=O)C(C)(C)C)cc1-c1cnc(N)c(-n2cncn2)n1` [Example 36, 3-(5-Amino-6-[1,2,4]triazol-1-yl-pyrazin-2-yl)-N-(3,3-dimethyl-2-oxo-butyl)-4-methyl-benzenesulfonamide], the “Assay M RLM CI(int)” value in [1] was found to be 710 µL/min/mg. In addition, the concentration for half-maximal inhibition (IC50) in series [2] was 478 nM; in series [3], 110 nM; in [4] it was > 10 µM; in series [5], 0.25 µM; in series [6], 8 µM; in series [7], 51 nM. For the same compound, the IC50 in [8] is 160 nM; in series [9] it was 17 nM; in series [10], 850 nM.

Turning to `Cc1cc(C)n(-c2nc(-c3cc(S(=O)(=O)NCC(C)(C)O)ccc3C)cnc2N)n1` [Example 48, 3-(5-Amino-6-(3,5-dimethyl-1H-pyrazol-1-yl)pyrazin-2-yl)-N-(2-hydroxy-2-methylpropyl)-4-methyl benzenesulfonamide], in series [1], the “Assay M RLM CI(int)” value is 59 µL/min/mg. The IC50 in [2] was 1530 nM; in series [3], 920 nM; in [4], > 10 µM; in series [5], > 10 µM; in series [6], > 10 µM; in series [7], 487 nM. Besides, the results for the IC50 in [8], in [9] and in [10] were 2600 nM, 81 nM and 7300 nM, respectively.

`Cc1ccc(S(=O)(=O)NCCC(C)(C)O)cc1-c1cnc(N)c(-c2ccnn2C)n1` [Example 77, 3-(5-Amino-6-(1-methyl-1H-pyrazol-5-yl)pyrazin-2-yl)-N-(3-hydroxy-3-methylbutyl)-4-methylbenzenesulfonamide]: the “Assay M RLM CI(int)” value in series [1] was determined as 45 µL/min/mg. Moreover, the 50% inhibitory concentration (IC50) in [2] was 881 nM; in series [3] it was 300 nM; in [4] it was > 9.1 µM; in series [5] it was 5.47 µM; in series [6], > 9.1 µM; in series [7] it was 134 nM. Further, the IC50 in [8] turned out to be 230 nM; in series [9], 34 nM; in [10], 4200 nM.

For the compound `Cc1ccc(S(=O)(=O)NCC(C)(C)O)cc1-c1cnc(N)c(-c2cc(C3CC3)no2)n1` [Example 79, 3-(5-Amino-6-(3-cyclopropylisoxazol-5-yl)pyrazin-2-yl)-N-(2-hydroxy-2-methylpropyl)-4-methylbenzenesulfonamide], the “Assay M RLM CI(int)” value in series [1] came out at 63 µL/min/mg. Besides, the half-inhibitory concentration (IC50) stood at 3210 nM in [2]; 370 nM in series [3]; 7.6 µM in series [4]; 6.5 µM in series [5]; 3.9 µM in series [6]; 53 nM in [7]. The IC50 in [8] came out at 280 nM; in [9] it was 22 nM; in series [10], 1200 nM.

On to `Cc1csc(-c2nc(-c3cc(S(=O)(=O)NCC(C)(C)O)ccc3C)cnc2N)n1` [Example 80, 3-(5-Amino-6-(4-methylthiazol-2-yl)pyrazin-2-yl)-N-(2-hydroxy-2-methylpropyl)-4-methylbenzenesulfonamide], for which the “Assay M RLM CI(int)” value in [1] is 106 µL/min/mg. Moreover, the IC50 is 2880 nM in series [2]; 400 nM in series [3]; > 10 µM in series [4]; > 10 µM in [5]; 4.55 µM in [6]; 98 nM in [7]. In addition, the values for the IC50 in series [8], in [9] and in series [10] were 250 nM, 77 nM and 1700 nM, respectively.

For `Cc1ccc(S(=O)(=O)NCC(C)(C)O)cc1-c1cnc(N)c(-c2nc(C3CC3)no2)n1` [Example 95, 3-(5-Amino-6-(3-cyclopropyl-1,2,4-oxadiazol-5-yl)pyrazin-2-yl)-N-(2-hydroxy-2-methylpropyl)-4-methylbenzenesulfonamide], in series [1], the “Assay M RLM CI(int)” value turned out to be 53 µL/min/mg. Moreover, the half-maximal inhibitory concentration (IC50) was 1590 nM in series [2]; 730 nM in series [3]; > 9.55 µM in [4]; 7.4 µM in series [5]; > 9.55 µM in [6]; 262 nM in series [7]. The IC50 in series [8] was 900 nM; in series [9], 36 nM; in series [10], 4100 nM.

With `Cc1ccc(S(=O)(=O)NC2(CO)CC2)cc1-c1cnc(N)c(-n2cncn2)n1` [Example 98, 3-(5-Amino-6-(1H-1,2,4-triazol-1-yl)pyrazin-2-yl)-N-(1-(hydroxymethyl)cyclopropyl)-4-methylbenzenesulfonamide], the “Assay M RLM CI(int)” value in [1] turned out to be 31 µL/min/mg. Moreover, the half-inhibitory concentration (IC50) in [2] was 4170 nM; in [3], 310 nM; in series [4], > 9.1 µM; in series [5], > 9.1 µM; in [6], 2.5 µM; in series [7] it was 200 nM. Further, the IC50 is 1700 nM in [8], 38 nM in series [9] and 1400 nM in [10].

Take `Cc1ccc(S(=O)(=O)NCC(C)(C)CO)cc1-c1cnc(N)c(-c2cc(C3CC3)no2)n1` [Example 99, 3-(5-Amino-6-(3-cyclopropylisoxazol-5-yl)pyrazin-2-yl)-N-(3-hydroxy-2,2-dimethylpropyl)-4-methylbenzenesulfonamide]: the “Assay M RLM CI(int)” value in [1] turned out to be 74 µL/min/mg. The IC50 was determined as 3520 nM in series [2]; 140 nM in series [3]; 2.95 µM in [4]; 4.95 µM in [5]; 2.7 µM in series [6]; 59 nM in series [7]. Moreover, the IC50 in series [8] stood at 740 nM; in series [9], 14 nM; in series [10] it was 1650 nM.

In the case of `Cc1ccc(S(=O)(=O)NCCC(C)(C)O)cc1-c1cnc(N)c(-c2ccc(CO)s2)n1` [Example 119.35], in series [1], the “Assay M RLM CI(int)” value stood at 78 µL/min/mg. The 50% inhibitory concentration (IC50) in series [2] is 1020 nM; in [3], 70 nM; in series [4], > 9.1 µM; in [5], 3.9 µM; in [6], 0.74 µM; in [7], 18 nM. For the same compound, the IC50 was found to be 80 nM in [8], 13 nM in [9] and 940 nM in series [10].

On to `Cc1ccc(S(=O)(=O)NCCC(C)(C)O)cc1-c1cnc(N)c(-c2cc[nH]n2)n1` [Example 119.42], for which the “Assay M RLM CI(int)” value in [1] amounted to 41 µL/min/mg. The IC50 in series [2] was 2240 nM; in series [3] it was 360 nM; in series [4], > 9.1 µM; in [5], > 9.1 µM; in series [6] it was 0.88 µM; in series [7], 200 nM. Moreover, the figures for the IC50 in series [8], in series [9] and in [10] were 710 nM, 69 nM and 2340 nM, respectively.

As to `Cc1ccc(S(=O)(=O)NCCC(C)(C)O)cc1-c1cnc(N)c(-c2ccc(C3CC3)s2)n1` [Example 119.46], in series [1], the “Assay M RLM CI(int)” value is 122 µL/min/mg. For the same compound, the IC50 in [2] was 9190 nM; in series [3] it was 70 nM; in [4] it was > 9.1 µM; in series [5], 6.7 µM; in [6], 0.61 µM; in series [7] it was 81 nM. For the same compound, the half-maximal inhibitory concentration (IC50) worked out at 250 nM in [8] and 110 nM in series [9].

On to `Cc1ccc(S(=O)(=O)NCC2(O)COC2)cc1-c1cnc(N)c(-n2cncn2)n1` [Example 127.47], for which the IC50 is 2180 nM in [2]; 3200 nM in [3]; > 10 µM in [4]; > 10 µM in series [5]; 6.6 µM in [6]; 266 nM in series [7]. Further, the IC50 in series [8] was found to be 1100 nM; in [9], 60 nM; in [10], 2200 nM.
